In brackets after ≈: the same amount, converted by molar mass. Values belong to the molecule of their own block, whether it stands above or below them.
Tests used:
Assay in all cases: ≥ marks a high value that may be exact or a test limit, other limits are often not marked, values filed in µg/mL are converted to µM
[1] = tested on: Salmonella enterica subsp. enterica serovar Typhimurium ATCC 14028
[2] = tested on: Escherichia coli ATCC 25922
[3] = tested on: Staphylococcus aureus ATCC 25923
Escherichia coli ML-35 = tested on: Escherichia coli ML-35
[4] = tested on: Serratia marcescens ATCC 8100
[5] = tested on: Saccharomyces cerevisiae KCTC 7296
[6] = tested on: Staphylococcus epidermidis KCTC 3096
[7] = tested on: Salmonella typhimurium KCTC 1926
[8] = tested on: Bacillus subtilis KCTC 1918
[9] = tested on: Candida albicans TIMM 1768
[10] = tested on: Pseudomonas aeruginosa KCTC 1637
[11] = tested on: Trichosporon beigelii KCTC 7707
[12] = tested on: Staphylococcus epidermidis ATCC 12228
[13] = tested on: Pseudomonas aeruginosa ATCC 27853
[14] = tested on: Salmonella enterica subsp. enterica serovar Typhi DMST 22842
Vibrio cholerae non-O139 = tested on: Vibrio cholerae non-O139
Vibrio cholerae non-O1 = tested on: Vibrio cholerae non-O1
Escherichia coli O157:H7 = tested on: Escherichia coli O157:H7
[15] = tested on: Pseudomonas aeruginosa ATCC 15692
Saccharomyces cerevisiae = tested on: Saccharomyces cerevisiae
[16] = tested on: Staphylococcus aureus Cowan 1
[17] = tested on: Acinetobacter baumannii ATCC 19606
Acinetobacter junii RT-4 = tested on: Acinetobacter junii RT-4
[18] = tested on: Streptococcus pyogenes ATCC 21547
[19] = tested on: Schizosaccharomyces pombe
Escherichia coli D21 = tested on: Escherichia coli D21
[20] = tested on: Yersinia pseudotuberculosis YPIII
[21] = tested on: Candida albicans ATCC 10231
[22] = tested on: Enterococcus faecalis ATCC 29212
[23] = tested on: Pseudomonas syringae pv. tabaci 1918NCPPB
Staphylococcus capitis 1 = tested on: Staphylococcus capitis 1
Bacillus megaterium Bm11 = tested on: Bacillus megaterium Bm11
[24] = tested on: Pseudomonas aeruginosa ATCC 9027
[25] = tested on: Bacillus subtilis ATCC 9372
[26] = tested on: Staphylococcus aureus ATCC 6538
[27] = tested on: Escherichia coli ATCC 8739
[28] = tested on: Proteus vulgaris NCTC 4635

SMILES: CC[C@H](C)[C@H](NC(=O)[C@H](CCCN=C(N)N)NC(=O)CNC(=O)[C@H](CC(C)C)NC(=O)[C@H](Cc1ccccc1)NC(=O)[C@H](CCCN=C(N)N)NC(=O)[C@H](CO)NC(=O)[C@H](Cc1ccccc1)NC(=O)[C@H](Cc1c[nH]c2ccccc12)NC(=O)[C@H](CCCN=C(N)N)NC(=O)[C@@H](NC(=O)[C@@H](N)Cc1ccccc1)C(C)C)C(=O)N[C@@H](CC(C)C)C(N)=O [FVRWFSRFLGRIL]
MIC [12]: 6 µM (≈ 10.2 µg/mL)
MIC [13]: 24 µM (≈ 40.7 µg/mL)
MIC [15]: 24 µM (≈ 40.7 µg/mL)
MIC (Saccharomyces cerevisiae): 24 µM (≈ 40.7 µg/mL)
MIC [16]: 6 µM (≈ 10.2 µg/mL)
MIC [2]: 48 µM (≈ 81.4 µg/mL)
MIC [17]: 6 µM (≈ 10.2 µg/mL)
MIC [3]: 6 µM (≈ 10.2 µg/mL)
MIC (Acinetobacter junii RT-4): 12 µM (≈ 20.4 µg/mL)
MIC [18]: 3 µM (≈ 5.09 µg/mL)
MIC [19]: 12 µM (≈ 20.4 µg/mL)
MIC (Escherichia coli D21): 24 µM (≈ 40.7 µg/mL)
MIC [20]: 6 µM (≈ 10.2 µg/mL)
MIC [21]: 24 µM (≈ 40.7 µg/mL)
MIC [22]: 24 µM (≈ 40.7 µg/mL)
MIC [23]: 6 µM (≈ 10.2 µg/mL)
MIC (Staphylococcus capitis 1): 6 µM (≈ 10.2 µg/mL)
MIC (Bacillus megaterium Bm11): 3 µM (≈ 5.09 µg/mL)

SMILES: CC[C@H](C)[C@H](NC(=O)[C@@H](NC(=O)[C@H](CC(=O)O)NC(=O)[C@H](Cc1ccccc1)NC(=O)[C@H](CC(C)C)NC(=O)CN)C(C)C)C(=O)N[C@@H](CCCCN)C(=O)O [GLFDVIK]
MIC [24]: 1290 µM (≈ 1020 µg/mL)
MIC [25]: ≥ 1290 µM
MIC [26]: > 1290 µM
MIC [27]: ≥ 1290 µM
MIC [28]: ≥ 1290 µM

SMILES: CC[C@H](C)[C@H](NC(=O)[C@H](CCCN=C(N)N)NC(=O)CNC(=O)[C@H](CC(C)C)NC(=O)[C@H](Cc1ccccc1)NC(=O)[C@H](CCCN=C(N)N)NC(=O)[C@H](CO)NC(=O)[C@H](Cc1ccccc1)NC(=O)[C@H](Cc1c[nH]c2ccccc12)NC(=O)[C@H](CCC(N)=O)NC(=O)[C@@H](NC(=O)[C@@H](N)Cc1ccccc1)C(C)C)C(=O)N[C@@H](CC(C)C)C(N)=O [FVQWFSRFLGRIL]
MIC [12]: 6 µM (≈ 10 µg/mL)
MIC [13]: 48 µM (≈ 80.1 µg/mL)
MIC [15]: 24 µM (≈ 40 µg/mL)
MIC (Saccharomyces cerevisiae): 12 µM (≈ 20 µg/mL)
MIC [16]: 6 µM (≈ 10 µg/mL)
MIC [2]: 12 µM (≈ 20 µg/mL)
MIC [17]: 6 µM (≈ 10 µg/mL)
MIC [3]: 6 µM (≈ 10 µg/mL)
MIC (Acinetobacter junii RT-4): 6 µM (≈ 10 µg/mL)
MIC [18]: 6 µM (≈ 10 µg/mL)
MIC [19]: 6 µM (≈ 10 µg/mL)
MIC (Escherichia coli D21): ≥ 48 µM
MIC [20]: 6 µM (≈ 10 µg/mL)
MIC [21]: 12 µM (≈ 20 µg/mL)
MIC [22]: 12 µM (≈ 20 µg/mL)
MIC [23]: 12 µM (≈ 20 µg/mL)
MIC (Staphylococcus capitis 1): 6 µM (≈ 10 µg/mL)
MIC (Bacillus megaterium Bm11): 6 µM (≈ 10 µg/mL)

Second part, led by results:

MIC [1]: > 128 µM
MIC [2]: > 128 µM
MIC [3]: > 128 µM
MIC (Escherichia coli ML-35): ≥ 128 µM
MIC [4]: ≥ 128 µM
SMILES: CC[C@H](C)[C@H](NC(=O)[C@@H]1CCCN1C(=O)[C@H](CCCN=C(N)N)NC(=O)[C@@H]1CCCN1C(=O)CNC(=O)[C@@H]1CCCN1C(=O)[C@H](CCCN=C(N)N)NC(=O)[C@@H]1CCCN1C(=O)[C@H](Cc1ccccc1)NC(=O)[C@@H]1CCCN1C(=O)[C@H](CC(C)C)NC(=O)[C@@H]1CCCN1C(=O)[C@H](CCCN=C(N)N)NC(=O)[C@@H]1CCCN1C(=O)[C@@H](NC(=O)[C@@H]1CCCN1C(=O)[C@H](CCCN=C(N)N)NC(=O)[C@@H]1CCCN1C(=O)CNC(=O)[C@@H]1CCCN1C(=O)[C@H](CCCN=C(N)N)NC(=O)[C@@H]1CCCN1C(=O)[C@H](Cc1ccccc1)NC(=O)[C@@H]1CCCN1C(=O)[C@H](CC(C)C)NC(=O)[C@@H]1CCCN1C(=O)[C@H](CCCN=C(N)N)NC(=O)[C@@H]1CCCN1)[C@@H](C)CC)C(=O)O [PRPLPFPRPGPRPIPRPLPFPRPGPRPI]

MIC [5]: 12.5 µM (≈ 23.5 µg/mL)
MIC [6]: 1.6 µM (≈ 3 µg/mL)
MIC [7]: 0.2 µM (≈ 0.375 µg/mL)
MIC [8]: 3.1 µM (≈ 5.82 µg/mL)
MIC [9]: 12.5 µM (≈ 23.5 µg/mL)
MIC [10]: 3.1 µM (≈ 5.82 µg/mL)
MIC [11]: 1.6 µM (≈ 3 µg/mL)
SMILES: CC(C)C[C@H](NC(=O)[C@H](CCCCN)NC(=O)[C@H](CCCCN)NC(=O)[C@H](CC(C)C)NC(=O)[C@H](CC(C)C)NC(=O)[C@H](CCCCN)NC(=O)[C@H](CCCCN)NC(=O)[C@H](CC(C)C)NC(=O)[C@H](CC(C)C)NC(=O)[C@@H]1CCCN1C(=O)[C@H](CCCCN)NC(=O)[C@H](CC(C)C)NC(=O)[C@H](CCCCN)NC(=O)[C@H](Cc1c[nH]c2ccccc12)NC(=O)[C@@H](N)CCCCN)C(N)=O [KWKLKPLLKKLLKKL]

MIC [12]: 9.45 µM (≈ 23 µg/mL)
MIC [13]: 37.4 µM (≈ 91 µg/mL)
MIC [14]: 9.45 µM (≈ 23 µg/mL)
MIC [2]: 4.52 µM (≈ 11 µg/mL)
MIC [3]: 18.9 µM (≈ 46 µg/mL)
MIC (Escherichia coli O157:H7): 4.52 µM (≈ 11 µg/mL)
SMILES: CC(C)[C@H](NC(=O)CNC(=O)[C@@H](N)CC(N)=O)C(=O)N[C@@H](CCC(N)=O)C(=O)N1CCC[C@H]1C(=O)N[C@@H](CCCCN)C(=O)N[C@@H](Cc1ccc(O)cc1)C(=O)N[C@@H](CCCCN)C(=O)N[C@@H](Cc1c[nH]c2ccccc12)C(=O)N[C@@H](Cc1c[nH]c2ccccc12)C(=O)N[C@@H](CCCCN)C(=O)N[C@@H](Cc1c[nH]c2ccccc12)C(=O)N[C@@H](Cc1c[nH]c2ccccc12)C(=O)N[C@@H](CCCCN)C(=O)N[C@@H](CCCCN)C(=O)N[C@@H](Cc1c[nH]c2ccccc12)C(=O)N[C@@H](Cc1c[nH]c2ccccc12)C(N)=O [NGVQPKYKWWKWWKKWW]
MIC (Vibrio cholerae non-O139): 4.52 µM (≈ 11 µg/mL)
MIC (Vibrio cholerae non-O1): 4.52 µM (≈ 11 µg/mL)

MIC [5]: 12.5 µM (≈ 22 µg/mL)
MIC [6]: 3.1 µM (≈ 5.47 µg/mL)
MIC [7]: 0.2 µM (≈ 0.353 µg/mL)
MIC [8]: 3.1 µM (≈ 5.47 µg/mL)
MIC [9]: 12.5 µM (≈ 22 µg/mL)
MIC [10]: 3.1 µM (≈ 5.47 µg/mL)
MIC [11]: 3.1 µM (≈ 5.47 µg/mL)
SMILES: CC(C)C[C@H](NC(=O)[C@H](CCCCN)NC(=O)[C@H](CC(C)C)NC(=O)[C@H](CCCCN)NC(=O)[C@H](CC(C)C)NC(=O)[C@@H]1CCCN1C(=O)[C@H](CCCCN)NC(=O)[C@H](CCCCN)NC(=O)[C@H](CC(C)C)NC(=O)[C@H](CC(C)C)NC(=O)[C@H](CCCCN)NC(=O)[C@H](CCCCN)NC(=O)[C@H](Cc1c[nH]c2ccccc12)NC(=O)[C@@H](N)CCCCN)C(N)=O [KWKKLLKKPLKLKL]

From DBAASP
